# According to patent publication US9155714B2, “Compositions comprising an aromatic alcohol and a TRPV-1 antagonist, and uses thereof” (JOHNSON & JOHNSON CONSUMER INC., priority 2013, dated 2015):
# Several values for one entry are separate records, joined by “and”; a condition that tells them apart may be missing. Identical values can stand only once.
# Tests used:
# Test in all cases: Calcium Flux Test, activity as TRPV-1 agonist
# Assay type in all cases: cell-based
# [1] = molecular target: T1, human vanilloid receptor-1 (TRPV-1) (Homo sapiens, UniProt Q8NER1); parameters: key: **: statistically significant; n/s: not statistically significant
# T1 construct: host or cells: HEK293
# Description: (§1) The Calcium Flux Test is performed in the following manner: Recombinant HEK293 cells expressing human vanilloid receptor-1 (TRPV-1; accession number AF196175, EMD Millipore, Billerica, Mass.) are grown in D-MEM/F-12 media (Life Technologies, Grand Island, N.Y.) supplemented with 10% fetal bovine serum, 1% non essential amino acids and 400 μg/mL Geneticin (Gibco, Life Technologies). Cells are plated at a concentration of 15,000 cells per well on poly-D-lysine-coated 384 well plates and incubated overnight at 5% CO2 and 37° C. After incubation, culture media is removed from the wells and replaced with 50 μL per well of Fluo-8 No Wash dye solution (#36315, AAT Bioquest, Sunnyvale, Calif.). The Fluo-8 dye solution is prepared by mixing 20 uL of Fluo-8 NW with 30 mL of 0.33× Pluronic® F127 Plus (BASF of Ludwigshafen, Germany) in assay buffer (1×HBSS+2% of HEPES). Fluo-8 dye is incubated for 30 minutes at room temperature. Intracellular calcium (Ca^2+) flux is monitored upon exposure to aromatic alcohol in DMSO vehicle by measuring fluorescence intensity at Ex/Em 490/525 on a Functional Drug Screening System (FDSS; Hamamatsu, […]). Measurements are taken every second for a period of 4 minutes. […] Statistical differences are obtained using One Way ANOVA with Tukey Post-hoc test; statistical significance is defined as P≦0.05.
# (§2) Phenoxyethanol was tested at a series of concentrations in DMSO for activity as a TRPV-1 agonist according to the Calcium Flux Test described above. Capsaicin was used as a positive control.
# (§3) Maximum RFU values for treatment with phenoxyethanol or capsaisin were compared to the Maximum RFU for a DMSO vehicle alone. Concentrations of phenoxyethanol and capsaicin are reported in milimolar (mM) and nanomolar (nM), respectively.
# (§4) Benzyl alcohol and sodium bicarbonate were tested using the Calcium Flux Test.
# (§5) Benzyl alcohol and phenethyl alcohol were tested at a series of concentrations in DMSO for activity as a TRPV-1 agonist as described in Example 1. Concentrations of benzyl alcohol and phenethyl alcohol are reported in units of % w/v.
# [2] = molecular target: T1, human vanilloid receptor-1 (TRPV-1)
# Description: as §1, §2, §3, §4, §5
# [3] = molecular target: T1, human vanilloid receptor-1 (TRPV-1); parameters: key: **: Statistically significant; n/s: Not statistically significant
# Description: as §1, §2, §3, §4, §5
# T1 sequence (Q8NER1 whole entry): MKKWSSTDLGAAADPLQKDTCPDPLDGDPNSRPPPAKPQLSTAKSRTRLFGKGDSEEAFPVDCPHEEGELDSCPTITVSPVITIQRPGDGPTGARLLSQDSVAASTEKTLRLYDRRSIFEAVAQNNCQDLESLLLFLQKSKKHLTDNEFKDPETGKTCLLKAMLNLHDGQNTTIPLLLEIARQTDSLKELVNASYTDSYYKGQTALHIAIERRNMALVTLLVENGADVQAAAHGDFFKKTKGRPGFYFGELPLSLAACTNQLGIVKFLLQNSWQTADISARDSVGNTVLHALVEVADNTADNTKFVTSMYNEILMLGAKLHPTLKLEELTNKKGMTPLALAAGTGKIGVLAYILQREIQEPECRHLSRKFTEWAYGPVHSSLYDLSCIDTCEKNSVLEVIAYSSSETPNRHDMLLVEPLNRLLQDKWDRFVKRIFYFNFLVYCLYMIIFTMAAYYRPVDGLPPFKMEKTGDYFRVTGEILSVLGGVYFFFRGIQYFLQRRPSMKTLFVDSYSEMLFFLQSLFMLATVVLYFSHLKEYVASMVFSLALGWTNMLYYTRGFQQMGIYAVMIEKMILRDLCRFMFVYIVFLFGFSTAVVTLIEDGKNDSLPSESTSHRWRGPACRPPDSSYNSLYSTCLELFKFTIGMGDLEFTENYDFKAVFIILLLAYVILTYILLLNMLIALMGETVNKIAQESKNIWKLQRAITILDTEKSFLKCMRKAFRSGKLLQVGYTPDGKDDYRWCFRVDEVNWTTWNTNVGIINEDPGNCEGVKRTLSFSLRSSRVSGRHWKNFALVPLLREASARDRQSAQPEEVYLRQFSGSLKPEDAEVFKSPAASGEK
smiles,measurement,setting,value
"COc1cc(CNC(=O)CCCC/C=C/C(C)C)ccc1O [Capsaicin, capsaicin]",P < 0.05 Compared to Vehicle,[1]; capsaicin 0.0381 nM,n/s
same,P < 0.05 Compared to Vehicle,[1]; capsaicin 0.1526 nM,n/s
same,P < 0.05 Compared to Vehicle,[1]; capsaicin 0.6104 nM,**
same,P < 0.05 Compared to Vehicle,[1]; capsaicin 2 nM,**
same,P < 0.05 Compared to Vehicle,[1]; capsaicin 10 nM,**
same,P < 0.05 Compared to Vehicle,[1]; capsaicin 39 nM,**
same,P < 0.05 Compared to Vehicle,[1]; capsaicin 156 nM,**
same,P < 0.05 Compared to Vehicle,[1]; capsaicin 625 nM,**
same,P < 0.05 Compared to Vehicle,[1]; capsaicin 2500 nM,**
same,P < 0.05 Compared to Vehicle,[1]; capsaicin 10000 nM,**
same,intracellular calcium flux in TRPV-1-transfected HEK cells (result in words),[2],dose dependent increases
same,Maximum RFU (mean ± SD),[2]; capsaicin 0.0381 nM alone,10.19 ± 2.94 RFU
same,Maximum RFU (mean ± SD),[2]; capsaicin 0.1526 nM alone,29.34 ± 8.18 RFU
same,Maximum RFU (mean ± SD),[2]; capsaicin 0.6104 nM alone,121.32 ± 46.41 RFU
same,Maximum RFU (mean ± SD),[2]; capsaicin 2 nM alone,253.47 ± 24.63 RFU
same,Maximum RFU (mean ± SD),[2]; capsaicin 10 nM alone,348.17 ± 5.56 RFU
same,Maximum RFU (mean ± SD),[2]; capsaicin 39 nM alone,405.53 ± 11.25 RFU
same,Maximum RFU (mean ± SD),[2]; capsaicin 100 nM alone (0 antagonist),647.05 ± 33.18 RFU and 849.62 ± 7.02 RFU and 1006.91 ± 74.51 RFU
same,Maximum RFU (mean ± SD),[2]; capsaicin 156 nM alone,491.07 ± 21.10 RFU
same,Maximum RFU (mean ± SD),[2]; capsaicin 300 nM alone (0 nM antagonist),860.95 ± 33.14 RFU and 875.05 ± 55.11 RFU
same,Maximum RFU (mean ± SD),[2]; capsaicin 625 nM alone,604.13 ± 32.46 RFU
same,Maximum RFU (mean ± SD),[2]; capsaicin 2500 nM alone,617.87 ± 34.14 RFU
same,Maximum RFU (mean ± SD),[2]; capsaicin 10000 nM alone,698.83 ± 30.57 RFU
"OCCOc1ccccc1 [Phenoxyethanol, 2-phenoxy-1-ethanol]",P < 0.05 Compared to Vehicle,[3]; phenoxyethanol 0.5 mM,n/s
same,P < 0.05 Compared to Vehicle,[3]; phenoxyethanol 0.75 mM,n/s
same,P < 0.05 Compared to Vehicle,[3]; phenoxyethanol 1 mM,**
same,P < 0.05 Compared to Vehicle,[3]; phenoxyethanol 1.5 mM,**
same,P < 0.05 Compared to Vehicle,[3]; phenoxyethanol 2 mM,**
same,P < 0.05 Compared to Vehicle,[3]; phenoxyethanol 2.5 mM,**
same,P < 0.05 Compared to Vehicle,[3]; phenoxyethanol 3 mM,**
same,P < 0.05 Compared to Vehicle,[3]; phenoxyethanol 3.5 mM,**
same,P < 0.05 Compared to Vehicle,[3]; phenoxyethanol 4 mM,**
same,increase in Maximum RFU values compared to the vehicle alone,[2],thirty to forty-fold
same,intracellular calcium flux in TRPV-1-transfected HEK cells (result in words),[2],dose dependent increases
same,Maximum RFU (mean ± SD),[2]; phenoxyethanol 0.5 mM alone,96.96 ± 61.20 RFU
same,Maximum RFU (mean ± SD),[2]; phenoxyethanol 0.75 mM alone,124.81 ± 37.58 RFU
same,Maximum RFU (mean ± SD),[2]; phenoxyethanol 1 mM alone,200.28 ± 76.93 RFU
same,Maximum RFU (mean ± SD),[2]; phenoxyethanol 1.5 mM alone,304.41 ± 70.10 RFU
same,Maximum RFU (mean ± SD),[2]; phenoxyethanol 2.5 mM alone,363.73 ± 44.11 RFU
same,Maximum RFU (mean ± SD),[2]; phenoxyethanol 3 mM alone,401.68 ± 26.58 RFU and 441.76 ± 36.68 RFU and 224.26 ± 42.60 RFU and 257.93 RFU
same,Maximum RFU (mean ± SD),[2]; phenoxyethanol 3.5 mM alone,404.21 ± 42.32 RFU
same,Maximum RFU (mean ± SD),[2]; phenoxyethanol 4 mM alone,453.25 ± 34.18 RFU
"O=C([O-])O.[Na+] [Sodium Bicarbonate, sodium bicarbonate]",P < 0.05 Compared to Vehicle,[3]; sodium bicarbonate 0.03125 mM,n/s
same,P < 0.05 Compared to Vehicle,[3]; sodium bicarbonate 0.0625 mM,n/s
same,P < 0.05 Compared to Vehicle,[3]; sodium bicarbonate 0.125 mM,n/s
same,P < 0.05 Compared to Vehicle,[3]; sodium bicarbonate 0.25 mM,**
same,P < 0.05 Compared to Vehicle,[3]; sodium bicarbonate 0.5 mM,n/s
same,intracellular calcium flux in TRPV-1-transfected HEK cells (result in words),[2],do not Induce Calcium Flux
same,Maximum RFU (mean ± SD),[2]; sodium bicarbonate 0.03125 mM,109.99 ± 1.37 RFU
same,Maximum RFU (mean ± SD),[2]; sodium bicarbonate 0.0625 mM,102.15 ± 4.19 RFU
same,Maximum RFU (mean ± SD),[2]; sodium bicarbonate 0.125 mM,114.34 ± 6.46 RFU
same,Maximum RFU (mean ± SD),[2]; sodium bicarbonate 0.25 mM,124.90 ± 8.41 RFU
same,Maximum RFU (mean ± SD),[2]; sodium bicarbonate 0.5 mM,3.39 ± 2.66 RFU
